From PMC12214830, “The human RIF1-Long isoform interacts with BRCA1 to promote recombinational fork repair under DNA replication stress” (Nature Communications, 2025)

Key:
Assay type in all cases: cell-based, human
ssDNA = assay: native IdU immunofluorescence (ssDNA), RPE-1 cells; conditions: HU 4 mM 24 h
Description: For detection of iododeoxyuridine (IdU) by immunofluorescence, cells were grown in the presence of 10 µM IdU for 72 h (with Morpholinos added at 24 h and HU added at 48 h). Cells were then permeabilized with 0.5% TritonX-100 in PBS for 7 min on ice, fixed with 4% w/v formaldehyde solution for 15 min at RT, and treated again with 0.5% TritonX-100 in PBS for 10 min on ice. Coverslips were immunostained as described above.

[1] = tested on: RIF1-BRCA1 proximity in RPE-1 cells; assay: RIF1-BRCA1 proximity ligation assay, RPE-1 cells
Description: Proximity ligation assays were performed using the Duolink In Situ PLA Fluorescence Protocol (Sigma-Aldrich, DUO92101) following the manufacturer’s instruction. Cells were grown on glass coverslips and treated as indicated for specific experiments. Cells were then permeabilized with 0.5% TritonX-100 in PBS for 10 min on ice, and fixed with 3% formaldehyde, 2% sucrose in PBS for 10 min at room temperature (RT). After fixation, coverslips were blocked in 3% BSA in PBS for 1 h at RT and incubated with primary antibodies (anti-RIF1, Bethel laboratories A300-568A, 1:1000 dilution; anti-BRCA1, Santa Cruz Biotechnologies, sc-6954, 1:200 dilution), for 1 h at RT in a humidity chamber. Primary antibodies were then washed off with PLA washing buffer A supplied in the Duolink In Situ PLA kit. Coverslips were next incubated sequentially with PLA Probes (1 h at 37 °C), ligation solution (30 min at 37 °C) and amplification solution (100 min at 37 °C), with washes by washing buffer A in between each step. At the end of incubation, coverslips were washed with washing buffer B supplied in the Duolink In Situ PLA kit. Coverslips were then mounted on glass slides with PLA Mounting medium with DAPI. Images were captured by fluorescence microscopy (Zeiss Axio Imager). PLA foci number in each nucleus were analysed by CellProfiler Software[74] with a custom-made pipeline.
For EdU labelling combined with proximity ligation assay, cells were labelled with 10 µM EdU for 15 min, washed free of EdU and next incubated with medium containing 4 mM HU medium for 4 h. Cells were then permeabilized, fixed and subjected to RIF1-BRCA1 PLA procedures. After all PLA steps, EdU detection was performed following manufacturer’s instructions in the Click-iT EdU Imaging Kit (Invitrogen, C10640).
(§1) For proximity ligation assays and immunofluorescence signal intensity measurements, when comparing between two samples, statistical significance of differences was calculated by Mann-Whitney test for non-parametric distributions using GraphPad Prism software (v.9). When comparing among three or more samples, p values were calculated by Kruskal-Wallis test for non-parametric distributions with Dunn’s multiple comparisons using GraphPad Prism software (v.9). For RIF1 foci formation analysis (Fig. 6B), p values were calculated by two-tailed Student’s t test. For nuclear BRCA1 intensity fold change analyses (Fig. 6C, D), p values were calculated by two-tailed one-sample t test using GraphPad Prism software (v.9). For RAD51 foci formation analyses (Fig. 7B, E and Supplementary Fig. 7B), p values were calculated by chi-square test. For HR Reporter assay analysis (Fig. 7G and Supplementary Fig. 7L), p values were calculated by two-tailed paired Student’s t test. For micronuclei frequency analysis (Fig. 7H), p values were calculated by one-tailed paired Student’s t test. All Student’s t tests were performed with Excel T.TEST function. Chi-square tests were performed with the online Chi-square test calculator at https://www.socscistatistics.com/tests/chisquare2/default2.aspx. Sample number n for all box-and-whisker plots and dot plots are listed in Supplementary Data 1.

HCT116 cells = assay: colony formation (clonogenic survival) assay, HCT116 cells
Description: For HCT116-derived cells, cells were plated in 6-well plates at 250 cells/well, in triplicate for each drug concentration. Cells were incubated with drugs for 24 h, after which drug-containing medium was replaced with drug-free medium. Seven days later colony counting was performed using a Nikon Eclipse TS100 microscope. For the IR sensitivity test, cells were plated following the same procedure, then irradiated at desired doses and incubated for 7 days before colony counting. Clusters with more than 20 cells were counted as colonies. Mean and standard error of each triplicate was calculated.

RAD51 foci = RAD51 foci formation, HeLa cells; conditions: 24 h HU 4 mM
Description: Cells were grown on glass coverslips and treated as desired. Cells were then permeabilized with 0.5% TritonX-100 in PBS for 7 min on ice, and fixed with 4% w/v formaldehyde solution (Sigma HT5012) for 10 min at room temperature (RT). After fixation, coverslips were blocked with 3% BSA in PBS (RT, 1 h), incubated with primary antibodies (RT, 2 h), washed with PBS three times and incubated with secondary antibodies (RT, 1 h). […] Fluorescence signal intensities within each nucleus were analysed by CellProfiler software with custom-made pipelines. […]
For proximity ligation assays and immunofluorescence signal intensity measurements, when comparing between two samples, statistical significance of differences was calculated by Mann-Whitney test for non-parametric distributions using GraphPad Prism software (v.9). When comparing among three or more samples, p values were calculated by Kruskal-Wallis test for non-parametric distributions with Dunn’s multiple comparisons using GraphPad Prism software (v.9). For RIF1 foci formation analysis (Fig. 6B), p values were calculated by two-tailed Student’s t test. For nuclear BRCA1 intensity fold change analyses (Fig. 6C, D), p values were calculated by two-tailed one-sample t test using GraphPad Prism software (v.9). For RAD51 foci formation analyses (Fig. 7B, E and Supplementary Fig. 7B), p values were calculated by chi-square test. […]

micronuclei = micronuclei frequency, HeLa cells; conditions: HeLa RIF1-L vs RIF1-S or RIF1-L-APKF; HU 4 mM 24 h
Description: as §1

[2] = Fig S4F (repeat of 4E), 0h post-HU
[3] = Fig S4F (repeat of 4E), 4h post-HU
[4] = Fig S4F (repeat of 4E), 8h post-HU

## NC(=O)NO [HU, hydroxyurea]
ssDNA
  native IdU staining: both increased upon HU treatment
[1]; 4 h after HU removal
  RIF1-BRCA1 proximity signal after HU removal: retained
[1]; 8 h post-release
  RIF1-BRCA1 proximity signal after HU removal: declined to baseline level
[1]; Fig 3B, HU 4 mM 3 h
  RIF1-BRCA1 PLA foci per nucleus, mean: 1.331
  RIF1-BRCA1 PLA foci per nucleus, median: 1
[1]; Fig 3B, HU 24 h
  RIF1-BRCA1 PLA foci per nucleus, mean: 3.899
  RIF1-BRCA1 PLA foci per nucleus, median: 3
[1]; Fig 3C, HU 4 mM 24 h
  RIF1-BRCA1 PLA foci per nucleus, mean: 2.024
  RIF1-BRCA1 PLA foci per nucleus, median: 1
[1]; Fig 4E, 0h post-HU
  RIF1-BRCA1 PLA foci per nucleus, mean: 1.913
  RIF1-BRCA1 PLA foci per nucleus, median: 1, 1, 1, 1
[1]; Fig 4E, 4h post-HU
  RIF1-BRCA1 PLA foci per nucleus, mean: 1.712
  RIF1-BRCA1 PLA foci per nucleus, median: 1, 1, 1, 1
[1]; Fig 4E, 8h post-HU
  RIF1-BRCA1 PLA foci per nucleus, mean: 0.946
  RIF1-BRCA1 PLA foci per nucleus, median: 1, 1, 1, 1
[1]; Fig 4F, HU 4 mM 24 h
  RIF1-BRCA1 PLA foci per nucleus, mean: 7.107
  RIF1-BRCA1 PLA foci per nucleus, median: 5
[1]; [2]
  RIF1-BRCA1 PLA foci per nucleus, mean: 0.786
  RIF1-BRCA1 PLA foci per nucleus, median: 0, 0, 0, 0
[1]; [3]
  RIF1-BRCA1 PLA foci per nucleus, mean: 0.617
  RIF1-BRCA1 PLA foci per nucleus, median: 0, 0, 0, 0
[1]; [4]
  RIF1-BRCA1 PLA foci per nucleus, mean: 0.355
  RIF1-BRCA1 PLA foci per nucleus, median: 0, 0, 0, 0
[1]; Fig S4G (repeat), HU 4mM 24hr
  RIF1-BRCA1 PLA foci per nucleus, mean: 7.828
  RIF1-BRCA1 PLA foci per nucleus, median: 6
[1]; Fig S4J, HU 4mM 24hr
  RIF1-BRCA1 PLA foci per nucleus, mean: 7.107
  RIF1-BRCA1 PLA foci per nucleus, median: 0, 5, 5
[1]; HU 3 h
  RIF1-BRCA1 PLA foci: observable
[1]; HU 24 h
  RIF1-BRCA1 PLA foci: significantly increased
HCT116 cells; HCT116 expressing only RIF1-L, versus RIF1-WT
  colony survival, RIF1-L cells: RIF1-L conferred resistance comparable to RIF1-WT
HCT116 cells; HCT116 expressing only RIF1-S, versus RIF1-KO
  colony survival, RIF1-S cells: exhibited hypersensitivity to these drugs similar to RIF1-KO cells
RAD51 foci
  proportion of cells containing RAD51 foci: greatly increased
micronuclei
  frequency of micronuclei following HU: RIF1-L cells exhibited a lower frequency of micronuclei following HU treatment than RIF1-S or RIF1-L-APKF cells
